SMILES strings stand for the structures. Values after ≈ are worked out from the molar mass of the structure shown.

Data set [1] deals with Mycobacterium tuberculosis. The data set is described as follows: Antitubercular activity against Mycobacterium tuberculosis H37Rv ATCC 27294 after 7 days by microplate alamar blue assay. As to conditions: H37Rv ATCC 27294, 168 h. Type of data set: functional. Background: The colour change of resazurin is a common sign of viable cells or microbes.
The subject of data set [2] is Vero. The data set is described as follows: Cytotoxicity against african green monkey Vero cells after 72 hrs by MTS assay. Format: cell-based. As to conditions: Chlorocebus sabaeus. (Tetrazolium assays rely on reduction of a dye to a coloured formazan, in cell work by metabolically active cells.)
For data set [3], the system named is Vero. The data set is described as follows: Cytotoxicity against african green monkey Vero cells at 200 uM after 72 hrs by MTS assay. As to conditions: chlorocebus sabaeus. Format: cell-based.

By MIC is commonly meant the lowest concentration that inhibits growth of the organism. Take `CC(=O)O[C@H]1CC[C@]2(C)[C@H]3CC=C4[C@H]5[C@](C(=O)O)(CC[C@@H](C)[C@@]5(C)O)CC[C@@]4(C)[C@]3(C)C[C@@H](O)[C@H]2C1(C)C`: in data set [1], the lowest concentration to inhibit growth (MIC) was 75.5 µM (≈ 40.1 µg/mL). For `CC(=O)O[C@@H]1CC[C@@]2(C)[C@@H](CC[C@]3(C)[C@@H]2CC=C2[C@@H]4CC(C)(C)CC[C@]4(C)CC[C@]23C)[C@@]1(C)C(=O)O`, the MIC in data set [1] stood at 94.8 µM (≈ 47.3 µg/mL). In turn, `CC1(C)CC[C@]2(C(=O)O)CC[C@]3(C)C(=CC[C@@H]4[C@@]5(C)CC[C@@H](O)C(C)(C)[C@@H]5CC[C@]43C)[C@@H]2C1` registered an MIC in data set [1] greater than 200 µM. Regarding `CC[C@H](CC[C@@H](C)[C@H]1CC[C@H]2[C@@H]3CC=C4CC(=O)CC[C@]4(C)[C@H]3CC[C@]12C)C(C)C` [BETA-SITOSTENONE], the MIC in data set [1] amounted to 39.5 µM (≈ 16.3 µg/mL). In turn, `CC(=O)O[C@H]1CC[C@]23C[C@]24CC[C@]2(C)[C@@H]([C@H](C)CCC=C(C)C)CC[C@@]2(C)[C@@H]4CC[C@H]3[C@]1(C)C(=O)O` [BONIANIC ACID A] displayed an MIC in data set [1] of 34.8 µM (≈ 17.4 µg/mL). By IC50 is commonly meant the concentration that inhibits the measured activity by half. Consider `CC(=O)O[C@H]1CC[C@]23C[C@]24CC[C@]2(C)[C@@H]([C@H](C)CCC(=O)C(C)C)CC[C@@]2(C)[C@@H]4CC[C@H]3[C@]1(C)C(=O)O` [BONIANIC ACID B], for which, in data set [1], inhibition of growth (MIC) required 9.9 µM (≈ 5.1 µg/mL). This molecule had an IC50 with Vero [2] of 74.2 µM. The molecule `CC(C)[C@@H](C)/C=C/[C@@H](C)[C@H]1CC[C@@H]2[C@]1(C)CC[C@H]1[C@]23C=C[C@]2(C[C@@H](O)CC[C@]12C)OO3` [ERGOSTEROL PEROXIDE] registered an MIC in data set [1] of 3.5 µM (≈ 1.5 µg/mL). Further, in the data set on Vero [3], the Activity entry is given as “Non-toxic”.

As for `CC1(C)CC[C@]2(C(=O)O)CC[C@]3(C)C(=CC[C@@H]4[C@@]5(C)CC[C@H](O)C(C)(C)[C@@H]5CC[C@]43C)[C@@H]2C1` [OLEANOLIC_ACID], the MIC in data set [1] amounted to 96.5 µM (≈ 44.1 µg/mL). As to `CO[C@H]1/C=C/O[C@@]2(C)Oc3c(C)c(O)c4c(O)c(c(/C=N/N5CCN(C)CC5)c(O)c4c3C2=O)NC(=O)/C(C)=C\C=C\[C@H](C)[C@H](O)[C@@H](C)[C@@H](O)[C@@H](C)[C@H](OC(C)=O)[C@@H]1C` [RIFAMPIN], inhibition of growth in data set [1] (MIC) required 0.14 µM (≈ 0.115 µg/mL).

`C[C@H]1[C@H](C)CC[C@]2(C(=O)O)CC[C@]3(C)C(=CC[C@@H]4[C@@]5(C)CC[C@H](O)C(C)(C)[C@@H]5CC[C@]43C)[C@H]12` [URSOLIC ACID] had an MIC in data set [1] of 94.8 µM (≈ 43.3 µg/mL).

The values are drawn from ChEMBL document CHEMBL1799950, “Antituberculosis cycloartane triterpenoids from Radermachera boniana” (J Nat Prod, 2011).
